# Reference: patent publication US11382328B2, “Rapid drug discovery methods for pathogen inactivation” (priority 2019, dated 2022)
# Structures can show the parent of a compound that is named as a salt.
# Test system: E. coli strain W3110
# Test: Synergy assays: Biolog chemical sensitivity panels with Group IB metal, coefficient of drug interaction (CDI) from relative growth
# Format: cell-based
# Conditions: for CDI (coefficient of drug interaction), copper mixed with biocide: Copper (mM) section; for CDI (coefficient of drug interaction), gold + biocide: Gold (μM)
# [1] = 1st of 3 copper concentrations (value not shown), 1st of four biocide concentrations
# [2] = 1st of 3 copper concentrations (value not shown), 3rd of four biocide concentrations
# [3] = 1st of 3 copper concentrations (value not shown), 4th of four biocide concentrations
# [4] = 2nd of 3 copper concentrations (value not shown), 1st of four biocide concentrations
# [5] = 2nd of 3 copper concentrations (value not shown), 2nd of four biocide concentrations
# [6] = 2nd of 3 copper concentrations (value not shown), 3rd of four biocide concentrations
# [7] = 2nd of 3 copper concentrations (value not shown), 4th of four biocide concentrations
# [8] = 3rd of 3 copper concentrations (value not shown), 1st of four biocide concentrations
# [9] = 3rd of 3 copper concentrations (value not shown), 2nd of four biocide concentrations
# [10] = 3rd of 3 copper concentrations (value not shown), 3rd of four biocide concentrations
# [11] = 3rd of 3 copper concentrations (value not shown), 4th of four biocide concentrations
# [12] = Gold section of Table 5, first of three gold concentrations (μM, value not given), biocide concentration 3 of 4
# [13] = Gold section of Table 5, first of three gold concentrations (μM, value not given), biocide concentration 4 of 4
# [14] = Gold section of Table 5, second of three gold concentrations (μM, value not given), biocide concentration 3 of 4
# [15] = Gold section of Table 5, second of three gold concentrations (μM, value not given), biocide concentration 4 of 4
# [16] = Gold section of Table 5, third of three gold concentrations (μM, value not given), biocide concentration 3 of 4
# [17] = Gold section of Table 5, third of three gold concentrations (μM, value not given), biocide concentration 4 of 4
# [18] = Silver 0.5 μM, biocide concentration 1 of 4
# [19] = Silver 0.5 μM, biocide concentration 2 of 4
# [20] = Silver 0.5 μM, biocide concentration 3 of 4
# [21] = Silver 0.5 μM, biocide concentration 4 of 4
# [22] = Silver 1.0 μM, biocide concentration 1 of 4
# [23] = Silver 1.0 μM, biocide concentration 2 of 4
# [24] = Silver 1.0 μM, biocide concentration 3 of 4
# [25] = Silver 1.0 μM, biocide concentration 4 of 4
# [26] = Silver 5.0 μM, biocide concentration 1 of 4
# [27] = Silver 5.0 μM, biocide concentration 2 of 4
# [28] = Silver 5.0 μM, biocide concentration 3 of 4
# [29] = Silver 5.0 μM, biocide concentration 4 of 4
# [30] = Silver 0.5 μM, 4th of four biocide concentrations, E. coli
# [31] = Silver 1.0 μM, 4th of four biocide concentrations, E. coli
structure (smiles),measurement,setting,value
CN[C@@H]1[C@@H](O)[C@@H](O[C@@H]2[C@@H](O)[C@H](O[C@H]3O[C@H]([C@@H](C)O)[C@@H](O)[C@H](O)[C@H]3N)[C@@H](N)C[C@H]2N)OC[C@]1(C)O [geneticin (G418)],"CDI (coefficient of drug interaction), copper mixed with biocide",[1],0.97
same,"CDI (coefficient of drug interaction), copper mixed with biocide","1st of 3 copper concentrations (value not shown), 2nd of four biocide concentrations",0.87
same,"CDI (coefficient of drug interaction), copper mixed with biocide",[2],0.86
same,"CDI (coefficient of drug interaction), copper mixed with biocide",[3],0.88
same,"CDI (coefficient of drug interaction), copper mixed with biocide",[4],0.73
same,"CDI (coefficient of drug interaction), copper mixed with biocide",[5],0.71
same,"CDI (coefficient of drug interaction), copper mixed with biocide",[6],0.71
same,"CDI (coefficient of drug interaction), copper mixed with biocide",[7],Tox
same,"CDI (coefficient of drug interaction), copper mixed with biocide",[8],0.54
same,"CDI (coefficient of drug interaction), copper mixed with biocide",[9],0.50
same,"CDI (coefficient of drug interaction), copper mixed with biocide",[10],0.48
same,"CDI (coefficient of drug interaction), copper mixed with biocide",[11],0.44
same,CDI (coefficient of drug interaction),"Gold section of Table 5, first of three gold concentrations (μM, value not given), biocide concentration 1 of 4",1.08
same,CDI (coefficient of drug interaction),"Gold section of Table 5, first of three gold concentrations (μM, value not given), biocide concentration 2 of 4",1.00
same,CDI (coefficient of drug interaction),[12],1.01
same,CDI (coefficient of drug interaction),[13],0.95
same,CDI (coefficient of drug interaction),"Gold section of Table 5, second of three gold concentrations (μM, value not given), biocide concentration 1 of 4",1.05
same,CDI (coefficient of drug interaction),"Gold section of Table 5, second of three gold concentrations (μM, value not given), biocide concentration 2 of 4",1.03
same,CDI (coefficient of drug interaction),[14],1.00
same,CDI (coefficient of drug interaction),[15],1.02
same,CDI (coefficient of drug interaction),"Gold section of Table 5, third of three gold concentrations (μM, value not given), biocide concentration 1 of 4",1.05
same,CDI (coefficient of drug interaction),"Gold section of Table 5, third of three gold concentrations (μM, value not given), biocide concentration 2 of 4",1.04
same,CDI (coefficient of drug interaction),[16],1.05
same,CDI (coefficient of drug interaction),[17],1.11
same,CDI,[18],1.04
same,CDI,[19],0.96
same,CDI,[20],0.76
same,CDI,[21],Tox
same,CDI,[22],0.94
same,CDI,[23],0.82
same,CDI,[24],0.31
same,CDI,[25],Tox
same,CDI,[26],0.48
same,CDI,[27],0.49
same,CDI,[28],0.23
same,CDI,[29],Tox
NCC(=O)NO [glycine hydroxamate],CDI (coefficient of drug interaction),"Copper (mM), 1st of 3 copper concentrations (head line not shown), biocide concentration 1 of 4, E. coli",1.36
same,CDI (coefficient of drug interaction),"Copper (mM), 1st of 3 copper concentrations (head line not shown), biocide concentration 2 of 4, E. coli",Tox
same,CDI (coefficient of drug interaction),"Copper (mM), 1st of 3 copper concentrations (head line not shown), biocide concentration 3 of 4, E. coli",Tox
same,CDI (coefficient of drug interaction),"Copper (mM), 1st of 3 copper concentrations (head line not shown), biocide concentration 4 of 4, E. coli",Tox
same,CDI (coefficient of drug interaction),"Copper (mM), 2nd of 3 copper concentrations (head line not shown), biocide concentration 1 of 4, E. coli",1.06
same,CDI (coefficient of drug interaction),"Copper (mM), 2nd of 3 copper concentrations (head line not shown), biocide concentration 2 of 4, E. coli",0.47
same,CDI (coefficient of drug interaction),"Copper (mM), 2nd of 3 copper concentrations (head line not shown), biocide concentration 3 of 4, E. coli",Tox
same,CDI (coefficient of drug interaction),"Copper (mM), 2nd of 3 copper concentrations (head line not shown), biocide concentration 4 of 4, E. coli",Tox
same,CDI (coefficient of drug interaction),"Copper (mM), 3rd of 3 copper concentrations (head line not shown), biocide concentration 1 of 4, E. coli",1.73
same,CDI (coefficient of drug interaction),"Copper (mM), 3rd of 3 copper concentrations (head line not shown), biocide concentration 2 of 4, E. coli",Tox
same,CDI (coefficient of drug interaction),"Copper (mM), 3rd of 3 copper concentrations (head line not shown), biocide concentration 3 of 4, E. coli",Tox
same,CDI (coefficient of drug interaction),"Copper (mM), 3rd of 3 copper concentrations (head line not shown), biocide concentration 4 of 4, E. coli",Tox
same,"CDI (coefficient of drug interaction), gold + biocide","first of 3 gold concentrations, biocide concentration 1 of 4",1.08
same,"CDI (coefficient of drug interaction), gold + biocide","first of 3 gold concentrations, biocide concentration 2 of 4",0.95
same,"CDI (coefficient of drug interaction), gold + biocide","first of 3 gold concentrations, biocide concentration 3 of 4",1.13
same,"CDI (coefficient of drug interaction), gold + biocide","first of 3 gold concentrations, biocide concentration 4 of 4",1.01
same,"CDI (coefficient of drug interaction), gold + biocide","second of 3 gold concentrations, biocide concentration 1 of 4",1.07
same,"CDI (coefficient of drug interaction), gold + biocide","second of 3 gold concentrations, biocide concentration 2 of 4",1.11
same,"CDI (coefficient of drug interaction), gold + biocide","second of 3 gold concentrations, biocide concentration 3 of 4",1.19
same,"CDI (coefficient of drug interaction), gold + biocide","third of 3 gold concentrations, biocide concentration 1 of 4",1.00
same,"CDI (coefficient of drug interaction), gold + biocide","third of 3 gold concentrations, biocide concentration 2 of 4",1.07
same,"CDI (coefficient of drug interaction), gold + biocide","third of 3 gold concentrations, biocide concentration 3 of 4",1.39
same,"CDI (coefficient of drug interaction), gold + biocide","third of 3 gold concentrations, biocide concentration 4 of 4",1.22
same,CDI,[18],0.74
same,CDI,[19],0.72
same,CDI,[20],0.79
same,CDI,[21],0.76
same,CDI,[22],0.95
same,CDI,[23],0.99
same,CDI,[24],0.95
same,CDI,[25],1.07
same,CDI,[26],1.00
same,CDI,[27],0.95
same,CDI,[28],1.09
same,CDI,[29],0.88
Nc1n[nH]c(N)n1 [guanazole],"CDI (coefficient of drug interaction), copper mixed with biocide",[2],Tox
same,"CDI (coefficient of drug interaction), copper mixed with biocide",[3],Tox
same,"CDI (coefficient of drug interaction), copper mixed with biocide",[6],Tox
same,"CDI (coefficient of drug interaction), copper mixed with biocide",[7],Tox
same,"CDI (coefficient of drug interaction), copper mixed with biocide",[10],Tox
same,"CDI (coefficient of drug interaction), copper mixed with biocide",[11],Tox
same,CDI (coefficient of drug interaction),[12],Tox
same,CDI (coefficient of drug interaction),[13],Tox
same,CDI (coefficient of drug interaction),[14],Tox
same,CDI (coefficient of drug interaction),[15],Tox
same,CDI (coefficient of drug interaction),[16],Tox
same,CDI (coefficient of drug interaction),[17],Tox
same,CDI,[20],Tox
same,CDI,[21],Tox
same,CDI,[24],Tox
same,CDI,[25],Tox
same,CDI,[28],Tox
same,CDI,[29],Tox
N=C(N)N [guanidine hydrochloride],"CDI (coefficient of drug interaction), copper mixed with biocide",[3],Tox
same,"CDI (coefficient of drug interaction), copper mixed with biocide",[7],Tox
same,"CDI (coefficient of drug interaction), copper mixed with biocide",[11],Tox
same,CDI (coefficient of drug interaction),[13],Tox
same,CDI (coefficient of drug interaction),[15],Tox
same,CDI (coefficient of drug interaction),[17],Tox
same,"CDI (coefficient of drug interaction), silver + biocide",[30],Tox
same,"CDI (coefficient of drug interaction), silver + biocide",[31],Tox
same,"CDI (coefficient of drug interaction), silver + biocide","Silver 5.0 μM, 4th of four biocide concentrations, E. coli",Tox
N.N.N.N.N.N.[Cl-].[Cl-].[Cl-].[Co+3] [hexammine cobalt (III) chloride],"CDI (coefficient of drug interaction), copper mixed with biocide",[1],1.06
same,"CDI (coefficient of drug interaction), copper mixed with biocide",[2],1.19
same,"CDI (coefficient of drug interaction), copper mixed with biocide",[3],1.51
same,"CDI (coefficient of drug interaction), copper mixed with biocide",[4],0.93
same,"CDI (coefficient of drug interaction), copper mixed with biocide",[5],1.05
same,"CDI (coefficient of drug interaction), copper mixed with biocide",[6],1.05
same,"CDI (coefficient of drug interaction), copper mixed with biocide",[7],1.59
same,"CDI (coefficient of drug interaction), copper mixed with biocide",[8],0.94
same,"CDI (coefficient of drug interaction), copper mixed with biocide",[9],0.90
same,"CDI (coefficient of drug interaction), copper mixed with biocide",[10],0.73
same,"CDI (coefficient of drug interaction), copper mixed with biocide",[11],0.87
same,CDI (coefficient of drug interaction),"Gold 5 μM, biocide concentration 1 of 4, E. coli",1.09
same,CDI (coefficient of drug interaction),"Gold 5 μM, biocide concentration 4 of 4, E. coli",1.10
same,CDI (coefficient of drug interaction),"Gold 25 μM, biocide concentration 1 of 4, E. coli",1.09
same,CDI (coefficient of drug interaction),"Gold 25 μM, biocide concentration 3 of 4, E. coli",1.08
same,CDI (coefficient of drug interaction),"Gold 25 μM, biocide concentration 4 of 4, E. coli",1.25
same,"CDI (coefficient of drug interaction), silver + biocide","Silver 0.5 μM, 1st of four biocide concentrations, E. coli",0.98
same,"CDI (coefficient of drug interaction), silver + biocide","Silver 0.5 μM, 2nd of four biocide concentrations, E. coli",1.05
same,"CDI (coefficient of drug interaction), silver + biocide","Silver 0.5 μM, 3rd of four biocide concentrations, E. coli",0.97
same,"CDI (coefficient of drug interaction), silver + biocide",[30],0.82
same,"CDI (coefficient of drug interaction), silver + biocide","Silver 1.0 μM, 1st of four biocide concentrations, E. coli",0.98
same,"CDI (coefficient of drug interaction), silver + biocide","Silver 1.0 μM, 2nd of four biocide concentrations, E. coli",1.03
same,"CDI (coefficient of drug interaction), silver + biocide","Silver 1.0 μM, 3rd of four biocide concentrations, E. coli",1.04
same,"CDI (coefficient of drug interaction), silver + biocide",[31],0.39
same,"CDI (coefficient of drug interaction), silver + biocide","Silver 5.0 μM, 1st of four biocide concentrations, E. coli",1.26
same,"CDI (coefficient of drug interaction), silver + biocide","Silver 5.0 μM, 2nd of four biocide concentrations, E. coli",1.43
same,"CDI (coefficient of drug interaction), silver + biocide","Silver 5.0 μM, 3rd of four biocide concentrations, E. coli",1.00
same,CDI (coefficient of drug interaction),"[…], biocide concentration 3 of 4, E. coli",1.25
same,CDI (coefficient of drug interaction),"[…], biocide concentration 4 of 4, E. coli",1.62
